The values that follow come from patent US20240208972A1, “LRRK2 INHIBITORS AND USES THEREOF” (NEURON23, INC., priority 2022, published 2024).

pIC50: −log10 of the molar value. A value given as a limit tells only on which side of the number the result lay.

Series [1] addresses T1, wt human LRRK2, catalytic site (Homo sapiens, UniProt Q5S007).
T1 construct: wt human LRRK2, catalytic site, catalytic site (ThermoFisher/USA); purchased ThermoFisher
The experiment in a line: TR-FRET LanthaScreen Tb Kinase Activity Assay, LRRK2 kinase inhibition. The class given is biochemical. The note with it: 2 nM wt human LRRK2, 400 nM peptide, 38 μM ATP. The protocol: The compounds disclosed herein were tested for their inhibitory effect on LRRK2 kinase according to the following procedures.
The protocol for basic TR-FRET LanthaScreen Tb Kinase Activity Assay inhibitor studies is as follows. LanthaScreen Kinase Activity Assays (ThermoFisher/USA) to evaluate inhibitors were performed by addition of 100 nL of test compound in the corresponding DMSO dilutions/5 L of kinase/fluorescein-ERM(LRRKtide) peptide mixture, Compound & kinase were pre-incubated for 15 minutes, then 5 μl of ATP into 384 well small volume plates. After incubation for 120 minutes at room temperature, the detection reagents containing Tb-anti-pLRRKtide antibody were added to monitor the phosphrylation level of peptide. Then, after 60 min minutes incubation at room temperature plates were read in Envision. Data analysis of emission ratios was according to the LanthaScreen Tb Kinase Activity Assay protocol.
Kinase and assay components were adjusted to final concentrations according to the kit protocol. For LRRK2: 2 nM wt human LRRK2, catalytic site, catalytic site (ThermoFisher/USA), 400 nM peptide, 38 μM ATP in 1× Kinase Buffer A.
Basic protocol for TR-FRET LanthaScreen Tb Kinase Activity Assay inhibitor studies involved two steps: Enzymatic step: Addition of 100 nl of test compound in corresponding DMSO dilutions, 5 μl of kinase/substrate mixture, 5 μl of ATP into 384 well small volume plates. Incubation for 120 minutes at room temperature.
Detection step: Addition of 10 μl EDTA & antibody, read plate after 60 minutes. Data analysis of emission ratios according to KinEASE assay protocol.
Kinase and assay components were adjusted to final concentrations according to the kit protocol.
On the technique in general: Time-resolved FRET reads energy transfer from a long-lived donor to a nearby acceptor.

A further series relates to Caco-2 cells. The series can be described thus: Caco-2 bidirectional permeability. The class given is in vitro ADME. As to conditions: for Caco-2 A2B (10^−6 cm/s): A to B; for Caco-2 A2B (10^−6 cm/s) / Caco-2 B2A (10^−6 cm/s): HBSS pH 7.4, 2 hours; for Caco-2 B2A (10^−6 cm/s): B to A; for Caco-2 ER: Efflux Ratio=Papp (BA)/Papp (AB). The protocol: The compounds disclosed herein were tested in vitro on CaCo2 cell penetration according to the following procedures.
Test compounds were prepared in dimethyl sulfoxide (DMSO).
Caco-2 cells purchased from ATCC were seeded onto […] (PET) in 96-well Corning Insert plates at 1×10^5 cells/cm^2. The media were refreshed every 4 to 5 days until the 21st to 28th day for confluent cell monolayer formation.
Experiments were run in duplicate using a HBSS transport buffer containing 10 mM HEPES at pH 7.4. The test article TEST COMPOUND was tested bi-directionally at […] concentrations, the control compound digoxin was tested bi-directionally at 10 μM, and nadolol and metoprolol were tested at 2.0 μM in the A to B direction. Final DMSO concentrations were adjusted to less than 1%. The plates were incubated for 2 hours in a CO2 incubator at 37±1° C. with 5% CO2 at saturated humidity without shaking. Following incubation, samples were mixed with acetonitrile containing internal standard and centrifuged at 3200×g for 10 minutes. Then 200 μL of supernatant was taken from all samples. For TEST COMPOUND and digoxin, the supernatant was diluted with 200 μL of ultra-pure water and for nadolol and metoprolol, the supernatant was diluted with 600 μL of ultra-pure water. All samples were analyzed by LC-MS/MS. Concentrations of TEST COMPOUND and control compounds were determined in starting solutions, donor well solutions, and receiver well solutions using peak area ratios (PAR) of analyte to internal standard. After the transport assay, a lucifer yellow rejection assay was run to determine the Caco-2 cell monolayer integrity.
The apparent permeability (Papp), the % recovery and the efflux ratio were calculated as follows: • 1. Papp=(dCr/dt)×Vr/(A×C0) • 2. % Recovery=100×[(Vr×Cr)+(Vd×Cd)]/(Vd×C0) • 3. Efflux Ratio=Papp (BA)/Papp (AB) • Where: • dCr/dt is the slope of the cumulative concentration in the receiver compartment versus time (mM/s). • Vr and Vd is the volume in the receiver and donor compartments (0.075 mL on the apical side, 0.25 mL on the basolateral side), respectively. • A is the surface area of the cell monolayer (0.0804 cm^2). • C0 is the measured donor concentrations (μM) at the beginning of the experiment. • Cd and Cr are the final measured concentrations in the donor and receiver compartments, respectively.
The cell monolayer tight junction integrity assay was conducted after completion of the transport assay by adding Lucifer Yellow (LY) to the apical wells at 100 μM and incubating the cells for 30 minutes. Following incubation, tight junction integrity was assessed from LY concentrations in the basolateral compartment (receiver well) and the apical compartment (donor well) using fluorescence detection as follows: […]
Background: Caco-2 monolayers are a common model of the intestinal barrier.

The nature of series [2]: Human hepatocyte stability, in vitro h-Hept CLpredict. As to conditions: cryopreserved hepatocytes, predicted hepatic clearance, cells without asterisk, read-out: hHep Cl. The series is classed as in vitro ADME. Here is the method: The compounds disclosed herein were tested in vitro on human hepatocyte for in vitro h-Hept CLpredict according to the following procedures. • 1. Compound sock solutions were prepared by dissolving test compound and positive control in dimethyl sulfoxide (DMSO) at a concentration of 10 mM. Stock solutions were then diluted to 100 μM solutions by combining 198 μL of 50% acetonitrile/50% water with 2 μL of the 10 mM stock stock in separate conical tubes. • 2. Cryopreserved hepatocytes were prepared as follows: Incubation medium (William's E Medium supplemented with GlutaMAX) and hepatocyte thawing medium were placed in a 37° C. water bath and allowed to warm for at least 15 minutes prior to use. Cryopreserved hepatocytes were removed from storage, ensuring that vials remained at cryogenic temperatures until thawed. Cells were thawed by placing the vials in a 37° C. water bath and gently shaking the vials for 2 minutes. After thawing was completed, vials were sprayed with 70% ethanol and transferred to a biosafety cabinet. Hepatocytes were transferred into 50 mL conical tube containing thawing medium using wide-bore pipette tips. Tubes were placed into a centrifuge and spun at 100 g for 10 minutes. Then thawing medium was aspirated and hepatocytes were resuspended in enough incubation medium to yield−1.5×10^6 cells/mL. Cells were counted using acridine orange and propidium iodide (AO/PI) staining, and the viable cell density was determined. Cells were diluted with incubation medium to a working cell density of 0.5×10^6 viable cells/mL. • 3. To determine hepatocyte stability, 198 μL of hepatocytes were transferred into each well of a 96-well non-coated plate. Plates were placed in an incubator to allow the hepatocytes to warm for 10 minutes. • 4. The reaction was started by transferring 2 μL of the 100 μM test compound or positive control solution into respective wells of the 96-well non-coated plates. Plates were returned to the incubator until 25 μL aliquots of well contents were sampled at time points of 0, 15, 30, 60, 90 and 120 minutes. The aliquots were then mixed with 6 volumes (150 μL) of acetonitrile containing internal standard, IS (100 nM alprazolam, 200 nM caffeine and 100 nM tolbutamide) to terminate the reaction and vortexed for 5 minutes. After centrifuging the samples for 45 minutes at 3,220 g, aliquots of 100 μL of the supernatant were taken and diluted with 100 μL of ultra-pure water. The mixture was used for LC/MS/MS analysis. All incubations were performed in duplicate.
All calculations were carried out using Microsoft Excel. Peak area ratios (PAR) were determined from extracted ion chromatograms. The in vitro half-life (t1/2) of parent compound was determined by regression analysis of the percent parent disappearance vs. time curve as follows:
The in vitro half-life (in vitro t1/2) was determined from the slope value:
Conversion of the in vitro t1/2 (in minutes) into the in vitro intrinsic clearance (in vitro CLint, in μL/min/1×10^6 cells) was done using the following equation (mean of duplicate determinations): […]
The scaled-up intrinsic clearance (CLint, mL/min/kg), predicted hepatic clearance (CLH, mL/min/kg) and hepatic extraction ratio (ER) were calculated using the following equations:
CLint=(0.693/t1/2)*(1/(hepatocyte concentration (0.5*10^6 cells/mL))*scaling factors (Table (A)
• CLHept-predict=(QH*Scaled-up CLint*fub)/(QH+Scaled-up CLint*fub) • ER=CLH/QH • Where: • V=incubation volume (0.2 mL) • N=number of hepatocytes per well (0.1*10^6 cells) • QH=hepatic blood flow (mL/min/kg) (Table (A)
• fub=fraction of unbound drug in plasma, assumed to be 1 • Values used for calculation of the predicted hepatic clearance parameters data processing rules are outlined in the following tables (A) (B)

T1 sequence (Q5S007 1879-2138 limits assumed): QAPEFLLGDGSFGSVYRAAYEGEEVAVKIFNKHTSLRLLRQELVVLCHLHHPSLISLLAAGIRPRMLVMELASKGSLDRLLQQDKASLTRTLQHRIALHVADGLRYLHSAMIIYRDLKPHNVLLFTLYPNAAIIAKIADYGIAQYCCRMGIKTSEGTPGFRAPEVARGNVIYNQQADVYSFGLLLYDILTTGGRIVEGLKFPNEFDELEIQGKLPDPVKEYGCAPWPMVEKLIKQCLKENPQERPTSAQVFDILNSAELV

What is called pIC50 is the negative decadic logarithm of the IC50, by convention in mol/L. A low value points to a high IC50. In turn, `Cc1n[nH]c2c1N=C(c1c(F)cccc1F)Nc1ccc(-c3ccn(C(F)F)n3)cc1-2` [Example 14, 9-[1-(difluoromethyl)pyrazol-3-yl]-5-(2,6-difluorophenyl)-3-methyl-1,6-dihydropyrazolo[4,3-d][1,3]benzodiazepine] showed a pIC50 in series [1] of over 8.70. Also, in the series on Caco-2 cells, the “Caco-2 A2B (10^−6 cm/s)” value is recorded as “H (H (High permeability)”: A2B (B2A)>5)”, the “Caco-2 B2A (10^−6 cm/s)” value is “H (H (High permeability)”: A2B (B2A)>5)” and the “Caco-2 ER” value is recorded as “N (N (Non-substrate)”: ER<2.5)”. In addition, in series [2], the CLhep predicted at 1 µM was over 14.7 mL/min/kg.

Take `Cc1n[nH]c2c1N=C(c1c(F)cccc1F)Nc1cnc(N3CCC(F)CC3)cc1-2` [Example 3, 8-(2,6-difluorophenyl)-13-(4-fluoro-1-piperidyl)-5-methyl-3,4,7,9,12-pentazatricyclo[8.4.0.02,6]tetradeca-1(10),2(6),4,7,11,13-hexaene]: the pIC50 in series [1] is over 8.70. Besides, in the series on Caco-2 cells, the “Caco-2 A2B (10^−6 cm/s)” value is on record as “H (H (High permeability)”: A2B (B2A)>5)”, the “Caco-2 B2A (10^−6 cm/s)” value is reported as “H (H (High permeability)”: A2B (B2A)>5)” and the “Caco-2 ER” value was “N (N (Non-substrate)”: ER<2.5)”. For the same compound, in series [2], the CLhep predicted at 1 µM is 6.3 to 14.7 mL/min/kg.

`Cc1n[nH]c2c1N=C(c1c(F)cccc1F)Nc1cnc(NCc3ccc(F)cc3F)cc1-2` [Example 16, N-(2,4-difluorobenzyl)-5-(2,6-difluorophenyl)-3-methyl-1,6-dihydropyrazolo[4,3-d]pyrido[4,3-f][1,3]diazepin-9-amine] gave a pIC50 in series [1] of over 8.70. For the same compound, in the series with Caco-2 cells, the “Caco-2 A2B (10^−6 cm/s)” value is “H (H (High permeability)”: A2B (B2A)>5)”, the “Caco-2 B2A (10^−6 cm/s)” value is recorded as “H (H (High permeability)”: A2B (B2A)>5)” and the “Caco-2 ER” value is on record as “N (N (Non-substrate)”: ER<2.5)”. Moreover, the CLhep predicted at 1 µM in series [2] was 6.3 to 14.7 mL/min/kg.

Turning to `Cc1n[nH]c2c1N=C(c1c(F)cccc1F)Nc1c-2cc(N2C[C@H](C)O[C@@H](C)C2)nc1C` [Example 39, (2S,6S)-4-[8-(2,6-difluorophenyl)-5,11-dimethyl-3,4,7,9,12-pentazatricyclo[8.4.0.02,6]tetradeca-1(10),2(6),4,7,11,13-hexaen-13-yl]-2,6-dimethyl-morpholine], the pIC50 in series [1] was over 8.70. Moreover, in the series with Caco-2 cells, the “Caco-2 A2B (10^−6 cm/s)” value was “H (H (High permeability)”: A2B (B2A)>5)”, the “Caco-2 B2A (10^−6 cm/s)” value was “H (H (High permeability)”: A2B (B2A)>5)” and the “Caco-2 ER” value was “N (N (Non-substrate)”: ER<2.5)”. Also, the CLhep predicted at 1 µM in series [2] is 6.3 to 14.7 mL/min/kg.

As for `Cc1n[nH]c2c1N=C(c1c(F)cccc1F)Nc1cnc(N3CC4CC4C3)cc1-2` (centres unmarked) [Example 56, 13-(3-azabicyclo[3.1.0]hexan-3-yl)-8-(2,6-difluorophenyl)-5-methyl-3,4,7,9,12-pentazatricyclo[8.4.0.02,6]tetradeca-1(10),2(6),4,7,11,13-hexaene], in series [1], the pIC50 was over 8.70. In the series on Caco-2 cells, the “Caco-2 A2B (10^−6 cm/s)” value is “H (H (High permeability)”: A2B (B2A)>5)”, the “Caco-2 B2A (10^−6 cm/s)” value is recorded as “H (H (High permeability)”: A2B (B2A)>5)” and the “Caco-2 ER” value is reported as “N (N (Non-substrate)”: ER<2.5)”. In series [2], the CLhep predicted at 1 µM was over 14.7 mL/min/kg.

In turn, `Cc1n[nH]c2c1N=C(c1c(F)cccc1F)Nc1cnc(-c3ccc(C(F)(F)F)nc3)cc1-2` [Example 58, 8-(2,6-difluorophenyl)-5-methyl-13-[6-(trifluoromethyl)-3-pyridyl]-3,4,7,9,12-pentazatricyclo[8.4.0.0^2,6]tetradeca-1(10),2(6),4,7,11,13-hexaene] showed a pIC50 in series [1] of over 8.70. Moreover, in the series on Caco-2 cells, the “Caco-2 A2B (10^−6 cm/s)” value is “H (H (High permeability)”: A2B (B2A)>5)”, the “Caco-2 B2A (10^−6 cm/s)” value is given as “H (H (High permeability)”: A2B (B2A)>5)” and the “Caco-2 ER” value is reported as “N (N (Non-substrate)”: ER<2.5)”. For the same compound, the CLhep predicted at 1 µM in series [2] is 6.3 to 14.7 mL/min/kg.

In series [1], `CCc1n[nH]c2c1N=C(c1c(F)cccc1F)Nc1cnc(N3CCO[C@@H](C)C3)cc1-2` [Example 35, (S)-4-(5-(2,6-difluorophenyl)-3-ethyl-1,6-dihydropyrazolo[4,3-d]pyrido[4,3-f][1,3]diazepin-9-yl)-2-methylmorpholine] gave a pIC50 of over 8.70. Besides, in the series with Caco-2 cells, the “Caco-2 A2B (10^−6 cm/s)” value was “H (H (High permeability)”: A2B (B2A)>5)”, the “Caco-2 B2A (10^−6 cm/s)” value is recorded as “H (H (High permeability)”: A2B (B2A)>5)” and the “Caco-2 ER” value is given as “N (N (Non-substrate)”: ER<2.5)”. Besides, the CLhep predicted at 1 µM in series [2] was under 6.3 mL/min/kg.
